In US20240294533A1, “2-(HET)ARYL-SUBSTITUTED CONDENSED HETEROCYCLE DERIVATIVES AS PEST CONTROL AGENTS” (Bayer Aktiengesellschaft, priority 2021, published 2024):

Legend:
Assay type in all cases: in vivo
[1] = test system: Ctenocephalides felis; test: Ctenocephalides felis oral test; details: 100 ppm, oral via cattle blood, after 2 days
Description: Ctenocephalides felis—Oral Test Solvent: dimethyl sulfoxide An appropriate active ingredient formulation is produced by mixing 10 mg of active ingredient with 0.5 ml of dimethyl sulfoxide. Dilution with citrated cattle blood gives the desired concentration. About 20 unfed adult cat fleas (Ctenocephalides felis) are placed into a chamber which is closed at the top and bottom with gauze. Onto the chamber is placed a metal cylinder with its bottom end closed with parafilm. The cylinder contains the blood/active ingredient formulation, which can be imbibed by the fleas through the parafilm membrane. The cylinder is heated to 37° C., while the flea chambers are kept at room temperature. After 2 days, the kill rate in % is determined relative to the untreated control. 100% means that all of the fleas have been killed; 0% means that none of the fleas have been killed.

[2] = test system: Musca domestica; test: Musca domestica test; details: 100 ppm, adult houseflies, after 2 days
Description: Musca domestica Test Solvent: dimethyl sulfoxide An appropriate active ingredient formulation is produced by mixing 10 mg of active ingredient with 0.5 ml of dimethyl sulfoxide and diluting the concentrate with water to the desired concentration. Vessels containing a sponge treated with sugar solution and the desired concentration of active compound formulation are populated with 10 adult houseflies (Musca domestica). After 2 days, the kill rate in % is determined relative to the untreated control. 100% means that all of the flies have been killed; 0% means that none of the flies have been killed.

[3] = test system: Spodoptera frugiperda; test: Spodoptera frugiperda spray test (SPODFR), comparative; details: 168 h, cotton leaves, after 7 days, read-out: % Efficacy
Excerpt: Spodoptera frugtiperda—Spray Test (SPODFR) Solvent: 14 parts by weight of dimethylformamide Emulsifier: alkylaryl polyglycol ether An appropriate active ingredient formulation is produced by dissolving 1 part by weight of active ingredient with the stated parts by weight of solvent and making the solution up to the desired concentration with water containing an emulsifier concentration of 1000 ppm. Further test concentrations are produced by diluting the formulation with emulsifier-containing water. If the addition of ammonium salts or/and penetrants is required, these are each added in a concentration of 1000 ppm to the formulation solution. Cotton leaves (Gossypium hirsutum) are sprayed with an active ingredient formulation of the desired concentration and populated with caterpillars of the armyworm (Spodoptera frugiperda). After 7 days, the kill in % is determined. 100% means that all caterpillars have been killed; 0% means that none of the caterpillars have been killed.

CCS(=O)(=O)c1ccc(-n2ncn(-c3ccc(Cl)cc3)c2=O)nc1-c1nc2cc(C(F)(F)C(F)(F)F)cnc2n1C [Example I-23]
100%: efficacy (kill rate) [1] | efficacy (kill rate) [2] | Emax at 0.8 ppm [3]
